# According to US20220089592A1, “IMIDAZO[1,2-A]PYRIDINYL DERIVATIVES AS IRAK4 INHIBITORS” (priority 2019, published 2022):
# Counter-ions that a name gives are not always drawn.
# Molecular target: T1, IRAK4 (Homo sapiens, UniProt Q9NWZ3)
# T1 sequence (Q9NWZ3 1-460): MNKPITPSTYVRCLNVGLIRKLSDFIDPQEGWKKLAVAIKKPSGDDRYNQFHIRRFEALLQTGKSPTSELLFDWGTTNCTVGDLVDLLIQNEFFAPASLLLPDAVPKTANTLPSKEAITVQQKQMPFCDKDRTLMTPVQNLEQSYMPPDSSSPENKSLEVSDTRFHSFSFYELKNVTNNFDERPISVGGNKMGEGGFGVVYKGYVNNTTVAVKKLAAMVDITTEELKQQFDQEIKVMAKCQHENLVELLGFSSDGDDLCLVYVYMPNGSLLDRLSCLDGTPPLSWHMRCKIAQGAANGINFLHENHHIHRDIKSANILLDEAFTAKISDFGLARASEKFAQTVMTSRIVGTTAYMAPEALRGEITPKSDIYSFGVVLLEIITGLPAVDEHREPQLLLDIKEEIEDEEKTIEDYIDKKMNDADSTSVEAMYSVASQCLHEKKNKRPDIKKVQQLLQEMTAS
# Assay: 2-hour 1 mM ATP IRAK4 Biochemical assay (as above, but with 100 pM IRAK4 and 1 mM ATP)
# Settings: IRAK4 MSD BIOCHEMICAL (1 mM ATP) IC50 (μM), 100 pM IRAK4, 2 hours
# Procedure: The 2-hour 10 μM ATP Biochemical Assay employs a MesoScale Detection (MSD) format.
# The activity is quenched with 11 μl of 70 mM EDTA, pH 8.
# To detect the phosphorylated biotinylated peptide substrate, 30 μl of the quenched reaction mixture is added to equivalent wells of a 384 well streptavidin coated MesoScale plate (Meso Scale Discovery #L21SA-1). After a 1 hour incubation of the plate for 1 hour at room temperature with gentle mixing, the plate wells are washed 3 times with 50 mM Tris, pH 7.5, 150 mM NaCl, 0.02% Tween-20.
# A 25 μl volume of 1:500 anti-P-Threonine Rabbit polyclonal Antibody plus 1:500 Goat-anti-Rabbit Sulfo Tag Antibody (Meso Scale Discovery R32AB-1) in 50 mM Tris, pH 7.5, 150 mM NaCl, 0.02% Tween-20 plus 2% BSA is then added to each well. After a 1-hour incubation of the plate for 1 hour at room temperature with gentle mixing, the plate wells are washed, 3 times with 50 mM Tris, pH 7.5, 150 mM NaCl, 0.02% Tween-20. A 40 μl volume of 2×MSD Read Buffer (Meso Scale Discovery R92TC-1) is added to each well, and the plate is read immediately in an MSD Plate Reader (Meso Scale Discovery).
# The 2-hour 1 mM ATP IRAK4 Biochemical assay was performed as described above, but with 100 pM IRAK4 and 1 mM ATP.
row,Compound,IC50
1,"COc1nc(NC(=O)c2cccc(C3CC3)n2)cn2cc(C3CCOCC3)nc12 [Example 334, 6-cyclopropyl-N-(8-methoxy-2-(tetrahydro-2H-pyran-4-yl)imidazo[1,2-a]pyrazin-6-yl)picolinamide]",0.008 µM
2,"CCCOc1nc(NC(=O)c2ccccc2OC)cn2cc(C34COC(C)(C3)C4)nc12 [Example 335, 2-methoxy-N-(2-(1-methyl-2-oxabicyclo[2.1.1]hexan-4-yl)-8-propoxyimidazo[1,2-a]pyrazin-6-yl)benzamide]",0.011 µM
3,"COc1nc(NC(=O)c2cccc(C)n2)cn2cc(C3CCOCC3)nc12 [Example 455, N-(8-methoxy-2-(tetrahydro-2H-pyran-4-yl)imidazo[1,2-a]pyrazin-6-yl)-6-methylpicolinamide]",0.043 µM
4,"COc1ccccc1C(=O)Nc1cn2cc(C34COC(CF)(C3)C4)nc2c(OC(C)C)n1 [Example 483, N-(2-(1-(fluoromethyl)-2-oxabicyclo[2.1.1]hexan-4-yl)-8-isopropoxyimidazo[1,2-a]pyrazin-6-yl)-2-methoxybenzamide 2,2,2-trifluoroacetate]",0.022 µM
5,"COc1ccccc1C(=O)Nc1cn2cc(C3CCOCC3)nc2c(OC)n1 [Example 457, 2-methoxy-N-(8-methoxy-2-(tetrahydro-2H-pyran-4-yl)imidazo[1,2-a]pyrazin-6-yl)benzamide 2,2,2-trifluoroacetate]",0.096 µM
6,"CCOc1ncccc1C(=O)Nc1cn2cc(C3CCOCC3)nc2c(OC)n1 [Example 459, 2-ethoxy-N-(8-methoxy-2-(tetrahydro-2H-pyran-4-yl)imidazo[1,2-a]pyrazin-6-yl)nicotinamide]",0.022 µM
7,"COc1ncccc1C(=O)Nc1cn2cc(C34COC(C)(C3)C4)nc2c(F)c1OC1CCC1 [Example 436, N-(7-cyclobutoxy-8-fluoro-2-(1-methyl-2-oxabicyclo[2.1.1]hexan-4-yl)imidazo[1,2-a]pyridin-6-yl)-2-methoxynicotinamide 2,2,2-trifluoroacetate]",0.029 µM
8,"CC1(C)CCC1Oc1cc2nc(C3CCOCC3)cn2cc1NC(=O)c1cccc(C(F)F)n1 (stereo not shown) [Example 177, 6-(difluoromethyl)-N-(7-(2,2-dimethylcyclobutoxy)-2-(tetrahydro-2H-pyran-4-yl)imidazo[1,2-a]pyridin-6-yl)picolinamide]",0.001 µM
9,"O=C(Nc1cc(OCC(F)F)c2nc(C3CCOCC3)cn2c1)c1cccc(C(F)F)n1 [Example 289, N-(8-(2,2-difluoroethoxy)-2-(tetrahydro-2H-pyran-4-yl)imidazo[1,2-a]pyridin-6-yl)-6-(difluoromethyl)picolinamide]",0.006 µM
10,"Cc1nc(C(=O)Nc2cn3cc(C45CCC(C)(C4)OC5)nc3c(OC3CCC3)n2)co1 (stereo not shown) [Example 486, N-(8-cyclobutoxy-2-(1-methyl-2-oxabicyclo[2.2.1]heptan-4-yl)imidazo[1,2-a]pyrazin-6-yl)-2-methyloxazole-4-carboxamide 2,2,2-trifluoroacetate]",0.016 µM
11,"Cn1ccc(C(=O)Nc2cc(OC(F)F)c3nc(C45COC(C)(C4)C5)cn3c2)n1 [Example 423, N-(8-(difluoromethoxy)-2-(1-methyl-2-oxabicyclo[2.1.1]hexan-4-yl)imidazo[1,2-a]pyridin-6-yl)-1-methyl-1H-pyrazole-3-carboxamide 2,2,2-trifluoroacetate]",0.092 µM
12,"CC(C)Oc1c(NC(=O)c2cccc(OCC(F)F)n2)cn2cc(C34COC(C)(C3)C4)nc2c1F [Example 429, 6-(2,2-difluoroethoxy)-N-(8-fluoro-7-isopropoxy-2-(1-methyl-2-oxabicyclo[2.1.1]hexan-4-yl)imidazo[1,2-a]pyridin-6-yl)picolinamide 2,2,2-trifluoroacetate]",0.006 µM
13,"COc1c(F)cccc1C(=O)Nc1cn2cc(Cl)nc2cc1OC(C)C [Example 402, N-(2-chloro-7-isopropoxyimidazo[1,2-a]pyridin-6-yl)-3-fluoro-2-methoxybenzamide 2,2,2-trifluoroacetate]",0.157 µM
14,"COCC(C)(C)c1cn2cc(NC(=O)c3cccc(C(F)F)n3)c(OC(C)C)cc2n1 [Example 527, 6-(difluoromethyl)-N-(7-isopropoxy-2-(1-methoxy-2-methylpropan-2-yl)imidazo[1,2-a]pyridin-6-yl)picolinamide]",0.003 µM
15,"CCOc1nc2nc(C34COC(C)(C3)C4)cn2cc1NC(=O)c1cccc(C(F)F)n1 [Example 344, 6-(difluoromethyl)-N-(7-ethoxy-2-(1-methyl-2-oxabicyclo[2.1.1]hexan-4-yl)imidazo[1,2-a]pyrimidin-6-yl)picolinamide]",0.001 µM
16,"CC(C)Oc1cc2nc(C3CCOCC3)cn2cc1NC(=O)c1coc(C2CCOCC2)n1 [Example 387, N-(7-isopropoxy-2-(tetrahydro-2H-pyran-4-yl)imidazo[1,2-a]pyridin-6-yl)-2-(tetrahydro-2H-pyran-4-yl)oxazole-4-carboxamide 2,2,2-trifluoroacetate]",0.001 µM
17,"CC(C)Oc1nc2nc(C34COC(C)(C3)C4)cn2cc1NC(=O)c1cccc(OC2CC2)n1 [Example 494, 6-cyclopropoxy-N-(7-isopropoxy-2-(1-methyl-2-oxabicyclo[2.1.1]hexan-4-yl)imidazo[1,2-a]pyrimidin-6-yl)picolinamide]",0.006 µM
18,"COc1nc(NC(=O)c2cccc(C(F)F)n2)cn2cc([C@@]34CC[C@@](C)(C3)OC4)nc12 (single isomer, unassigned) [Example 277, 6-(Difluoromethyl)-N-(8-methoxy-2-((1R*,4S*)-1-methyl-2-oxabicyclo[2.2.1]heptan-4-yl)imidazo[1,2-a]pyrazin-6-yl)picolinamide]",0.007 µM
19,"O=C(Nc1cn2cc(C3CCOCC3)nc2cn1)c1csc(C2CC2)n1 [Example 332, 2-cyclopropyl-N-(2-(tetrahydro-2H-pyran-4-yl)imidazo[1,2-a]pyrazin-6-yl)thiazole-4-carboxamide]",0.108 µM
20,"COc1cccc(C(=O)Nc2cn3cc(C45COC(C)(C4)C5)nc3c(F)c2OC(C)C)n1 [Example 426, N-(8-fluoro-7-isopropoxy-2-(1-methyl-2-oxabicyclo[2.1.1]hexan-4-yl)imidazo[1,2-a]pyridin-6-yl)-6-methoxypicolinamide]",0.002 µM

# Results, then the compound that gave them:
row,IC50,Compound
1,0.001 µM,"COc1cc2nc(C34COC(C)(C3)C4)cn2cc1NC(=O)c1cccc(C(F)F)n1 [Example 515, 6-(difluoromethyl)-N-(7-methoxy-2-(1-methyl-2-oxabicyclo[2.1.1]hexan-4-yl)imidazo[1,2-a]pyridin-6-yl)picolinamide 2,2,2-trifluoroacetate]"
2,0.104 µM,"CCn1ccc(C(=O)Nc2cn3cc(C4CCOCC4)nc3c(OC)n2)n1 [Example 463, 1-ethyl-N-(8-methoxy-2-(tetrahydro-2H-pyran-4-yl)imidazo[1,2-a]pyrazin-6-yl)-1H-pyrazole-3-carboxamide 2,2,2-trifluoroacetate]"
3,0.001 µM,"CCOc1cc2nc(C3CCOCC3)cn2cc1NC(=O)c1cccc(CC)n1 [Example 217, N-(7-ethoxy-2-(tetrahydro-2H-pyran-4-yl)imidazo[1,2-a]pyridin-6-yl)-6-ethylpicolinamide]"
4,0.023 µM,"CCOc1cc2nc(C3C4COCC43)cn2cc1NC(=O)c1ccn(CC(F)(F)F)n1 (stereo not shown) [Example 235, N-(2-(3-oxabicyclo[3.1.0]hexan-6-yl)-7-ethoxyimidazo[1,2-a]pyridin-6-yl)-1-(2,2,2-trifluoroethyl)-1H-pyrazole-3-carboxamide]"
5,0.005 µM,"CC(C)Oc1nc2nc(C3C4COCC43)cn2cc1NC(=O)c1ccn(C)n1 (stereo not shown) [Example 500, N-(2-(3-oxabicyclo[3.1.0]hexan-6-yl)-7-isopropoxyimidazo[1,2-a]pyrimidin-6-yl)-1-methyl-1H-pyrazole-3-carboxamide Hydrochloride]"
6,0.001 µM,"O=C(Nc1cn2cc(C3CCOCC3)nc2cc1OCC1CC1(F)F)c1cccc(C(F)F)n1 (stereo not shown) [Example 196, N-(7-((2,2-difluorocyclopropyl)methoxy)-2-(tetrahydro-2H-pyran-4-yl)imidazo[1,2-a]pyridin-6-yl)-6-(difluoromethyl)picolinamide]"
7,0.004 µM,"CC(C)Cc1cc2nc(C3CCOCC3)cn2cc1NC(=O)c1cccc(C(F)F)n1 [Example 404, 6-(difluoromethyl)-N-(7-isobutyl-2-(tetrahydro-2H-pyran-4-yl)imidazo[1,2-a]pyridin-6-yl)picolinamide]"
8,0.002 µM,"O=C(Nc1cn2cc(C3CCOCC3)nc2cc1OCC1CC(F)(F)C1)c1cccc(C(F)F)n1 [Example 191, N-(7-((3,3-difluorocyclobutyl)methoxy)-2-(tetrahydro-2H-pyran-4-yl)imidazo[1,2-a]pyridin-6-yl)-6-(difluoromethyl)picolinamide]"
